The source of these data is patent US20130131069A1, “METHOD FOR TREATMENT OF SOLID MALIGNANCIES INCLUDING ADVANCED OR METASTATIC SOLID MALIGNANCIES” (Boehringer Ingelheim International GmbH, priority 2011, published 2013).

Data set [1] deals with advanced or metastatic solid malignancies. The data set is described as follows: Clinical trial: toxicity guided dose escalation study, 2-hr infusion on days 1 and 8 every 3 weeks. It counts as in vivo. How it is done:
(§1) Sequential cohorts of 3-6 patients with advanced or metastatic solid malignancies received a 2-hr infusion of volasertib on days 1 and 8 every 3 weeks in a toxicity guided dose escalation study. There were 4 prespecified doses (50-200 mg).
(§2) 27 Asian patients with advanced solid malignancies were treated. […] MTD was 150 mg for above described schedule. The median number of initiated courses was 3 over all dose groups (range 1-21). […] Two patients with bladder cancer and melanoma, respectively had partial responses.

A short description of data set [2]: Clinical trial: pharmacokinetics in patients. It counts as in vivo, human. As to conditions: 2-hr i.v. infusion days 1 and 8 every 3 weeks. How it is done: as §1, §2
[3] abbreviates: administered at two days during a 21 day treatment cycle.

On to `CC[C@@H]1C(=O)N(C)c2cnc(Nc3ccc(C(=O)N[C@H]4CC[C@H](N5CCN(CC6CC6)CC5)CC4)cc3OC)nc2N1C(C)C` [Volasertib, N-[trans-4-[4-(cyclopropylmethyl)-1-piperazinyl]cyclohexyl]-4-[[(7R)-7-ethyl-5,6,7,8-tetrahydro-5-methyl-8-(1-methylethyl)-6-oxo-2-pteridinyl]amino]-3-methoxy-benzamide], for which the MTD in data set [1] (2-hr infusion on days 1 and 8 of 21 day cycle) was 150 mg. In data set [1] (27 patients treated, days 1 and 8 every 3 weeks), the “patients with partial responses (bladder cancer and melanoma, respectively)” value is recorded as “Two”. Moreover, in data set [1] (setting [3]), the “patients achieved partial response (preliminary anti-tumor activity)” value is 1 patient and the “patients achieved stable disease” value amounted to 10 patients. In data set [1] (human, in vivo), the “dose limiting toxicities (DLTs)” value was “reversible thrombocytopenia, neutropenia and febrile neutropenia”. Also, the PK behavior result in data set [2] was “multi-compartmental”. In addition, the clearance in data set [2] (human, in vivo, iv) was determined as 807 mL/min. Further, the half-life in data set [2] (human, in vivo, iv, read-out: mean terminal elimination half-life (converted)) was 107 h. Moreover, in data set [2] (human, in vivo, iv, read-out: volume of distribution), the Vd was 4500 L.

For orientation: clearance means the volume of plasma or blood freed of the substance per unit of time. In general, half-life refers to how long it takes for the measured level to halve.
